Experimental data as given in PMC9696794, “Synthesis and Antimicrobial Activity of Short Analogues of the Marine Antimicrobial Peptide Turgencin A: Effects of SAR Optimizations, Cys-Cys Cyclization and Lipopeptide Modifications” (International Journal of Molecular Sciences, 2022).
Values after ≈ are worked out from the molar mass of the structure shown. Where a SMILES comes first, the peptide text is derived from it. Bridges are numbered along the chain shown (N, C = ends). The star is where a group is joined. Lauroyl = CCCCCCCCCCCC(=O)*; Octanoyl = CCCCCCCC(=O)*

Legend:
[1] = system: P. aeruginosa (Pa, ATCC 27853); experiment: microbe, parasite or virus in culture; assay type: cell-based, Pseudomonas aeruginosa; settings: for Antimicrobial Activity (MIC) Gram − Pa: ATCC 27853, 24 h
Summary of the method: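 Cultures grown in Mueller–Hinton broth were adjusted by OD600 to 2.5–3 × 10^4 CFU/mL and mixed with two-fold peptide dilutions from 256 to 1 µg/mL. Plates were incubated at 35 °C with OD595 monitored every hour for 24 h.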

E. coli MC4100 (WT) = experiment: Outer membrane permeability assay (NPN uptake fluorescence); assay type: cell-based, Escherichia coli
Description: The outer membrane of Gram-negative bacteria acts as a barrier for many hydrophobic and larger hydrophilic substances (>600 Da). However, some peptides can sensitize the outer membrane and thus facilitate the entry of various hydrophobic molecules. To explore if the peptides affect the outer membrane of E. coli MC4100, C12-cTurg-1 and C8-cTurg-2 were tested for their ability to enable the entry of the hydrophobic fluorescent probe 1-N-phenylnapthylamine (NPN, MW of 219 Da) (Figure 5). […] Normally, the hydrophobic NPN is excluded by E. coli bacteria, but it can enter the bacteria once the integrity of the outer membrane is compromised. […] Thus, the observed effects indicate that the outer membrane passage of C8-cTurg-2 was a rate-limiting step that was most likely preventing the peptide from reaching and accumulating in the inner membrane.
The permeability of the E. coli outer membrane was analysed by measuring increased fluorescence as kinetics of 1-N-phenylnaphthylamine (NPN, Sigma-Aldrich) uptake following the protocol described by, with minor modifications. Briefly, a single colony of E. coli MC4100 (WT) was suspended in MH medium and incubated overnight at 37 °C with shaking (225 rpm). The culture was diluted in MH medium and adjusted to OD600 = 0.1 and incubated at 37 °C until it reached an OD600 of 0.5. The cells were centrifuged and washed twice with an assay buffer (5 mM HEPES, 5 mM glucose, pH 7.2) and resuspended in the same buffer to a final OD600 of 1.0. E. coli MC4100 cells were mixed with 20 µM NPN. The assay set up was the same as for the membrane integrity and viability assay, using black round-bottom 96-well microtiter plates (Nunc) containing 10 µL of 2-fold dilutions of peptides (500 to 31.2 µg/mL). A volume of 90 µL of cell suspension with NPN was added to each well by the automated injector of the Synergy H1 Hybrid Reader. The fluorescence was immediately measured (well by well) at an excitation wavelength of 350 nm and an emission wavelength of 420 nm every second for 3 min. The relative fluorescence was calculated by normalizing the values from each time point with the negative control (Milli-Q water). CHX was included as a positive control.

E. coli (ATCC 25922) = experiment: Bacterial killing experiment (CFU count after MIC assay); assay type: cell-based, Escherichia coli
Description: (§1) A killing experiment was performed on selected lipopeptides by using actively growing cultures of S. aureus (ATCC 9144) and E. coli (ATCC 25922). The procedure was performed as previously described. […] The number of colony-forming units (CFU) was determined after 24 h of incubation at 37 °C. The tests were performed in triplicate.

S. aureus (ATCC 9144) = experiment: as above; assay type: cell-based, Staphylococcus aureus
Description: as §1

[2] = system: human red blood cells (RBC); experiment: Haemolytic activity assay; assay type: cell-based; settings: for Selectivity index (SI) G- / Selectivity index (SI) G+ / Selectivity index (SI) Fungi: Table S3, highest tested concentration used where EC50 above it; for Selectivity index (SI) G-: EC50/GM of Gram-negative strains; for Selectivity index (SI) G+: EC50/GM of Gram-positive strains; for Selectivity index (SI) Fungi: EC50/GM of fungi; for SI (selectivity index = EC50/GM): haemolytic EC50 over GM of MIC against all bacterial strains, Table 1; for RBC Tox. (EC50), haemolytic activity: human RBC, 1 h, 37 °C, concentration giving 50% haemolysis
Summary of the method: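 Washed human erythrocytes (1% hematocrit final) incubated 1 h at 37 °C with agitation with lipopeptides at 500–3.9 μM in PBS (≤1% DMSO), duplicates. Haemoglobin release read at 545 nm relative to 0.1% Triton X-100; EC50 is 50% haemolysis, averaged from three experiments.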

[3] = at half-MIC, compared to growth control

SMILES: [H]/N=C(\N/C(=N/[H])NCCCCCCNC(=N)NC(=N)Nc1ccc(Cl)cc1)Nc1ccc(Cl)cc1 [Chlorhexidine, reference compound]
- MIC ([1]; Pseudomonas aeruginosa, ATCC27853, P. aeruginosa ATCC 27853, 24 h, read-out: Antimicrobial Activity (MIC) Gram − Pa): 6.3 µg/mL (≈ 12.5 µM)
- effect on NPN fluorescence (outer membrane permeabilization) (E. coli MC4100 (WT); E. coli MC4100, 20 µM NPN, 3 min): increase the NPN fluorescence in a concentration-dependent manner

SMILES: CCCCCCCC(=O)N[C@H]1CSSC[C@@H](C(=O)N[C@@H](CCCCN)C(=O)N[C@@H](CC(C)C)C(N)=O)NC(=O)[C@H](CCCCN)NC(=O)[C@H](Cc2c[nH]c3ccccc23)NC(=O)CNC(=O)[C@H](Cc2c[nH]c3ccccc23)NC(=O)[C@H](Cc2c[nH]c3ccccc23)NC(=O)[C@H](CCCCN)NC(=O)[C@H](CCCCN)NC(=O)CNC1=O [Peptide C8-cTurg-2, C8- (CGKKWWGWKC)KL-NH2] (Octanoyl-CGKKWWGWKCKL-NH2; disulfide 1-10)
- Antimicrobial Activity (MIC) Gram − Pa [1]: 8 µg/mL
- colony-forming units (CFU) after treatment (E. coli (ATCC 25922); at MIC (or above), 24 h): No CFU were observed
- colony-forming units (CFU) after treatment (E. coli (ATCC 25922); [3]): slightly less colony-forming units (CFU) were formed
- colony-forming units (CFU) after treatment (S. aureus (ATCC 9144); at MIC (or above), 24 h): No CFU were observed
- colony-forming units (CFU) after treatment (S. aureus (ATCC 9144); [3]): slightly less colony-forming units (CFU) were formed
- effect on NPN fluorescence (outer membrane permeabilization) (E. coli MC4100 (WT); not told): increase the NPN fluorescence in a concentration-dependent manner
- Selectivity index (SI) G- [2]: 78
- Selectivity index (SI) G+ [2]: 155
- Selectivity index (SI) Fungi [2]: 35
- SI (selectivity index = EC50/GM) [2]: 123
- RBC Tox. (EC50), haemolytic activity [2]: 439 µg/mL

SMILES: CCCCCCCCCCCC(=O)N[C@H]1CSSC[C@@H](C(=O)N[C@@H](CCCCN)C(=O)N[C@@H](CC(C)C)C(N)=O)NC(=O)[C@H](CCCCN)NC(=O)[C@H](Cc2c[nH]c3ccccc23)NC(=O)CNC(=O)CNC(=O)[C@@H]2CCCN2C(=O)[C@H](CCCCN)NC(=O)[C@H](CCCCN)NC(=O)CNC1=O [Peptide C12-cTurg-1, C12 -(CGKKPGGWKC)KL-NH2] (Lauroyl-CGKKPGGWKCKL-NH2; disulfide 1-10)
- Antimicrobial Activity (MIC) Gram − Pa [1]: 16 µg/mL
- colony-forming units (CFU) after treatment (E. coli (ATCC 25922); at MIC (or above), 24 h): No CFU were observed
- colony-forming units (CFU) after treatment (E. coli (ATCC 25922); [3]): slightly less colony-forming units (CFU) were formed
- colony-forming units (CFU) after treatment (S. aureus (ATCC 9144); at MIC (or above), 24 h): No CFU were observed
- colony-forming units (CFU) after treatment (S. aureus (ATCC 9144); [3]): slightly less colony-forming units (CFU) were formed
- increase in NPN fluorescence (E. coli MC4100 (WT); E. coli MC4100, 25 to 50 µg/mL): almost a four-fold increase
- effect on NPN fluorescence (outer membrane permeabilization) (E. coli MC4100 (WT); not told): increase the NPN fluorescence in a concentration-dependent manner
- Selectivity index (SI) G- [2]: 27
- Selectivity index (SI) G+ [2]: 77
- Selectivity index (SI) Fungi [2]: 11
- SI (selectivity index = EC50/GM) [2]: 55
- RBC Tox. (EC50), haemolytic activity [2]: 219 µg/mL
